# Assay results reported in EP4467141A1, “PYRAZOLO-QUINOLINES AS SELECTIVE INHIBITORS OF GENOTOXIC STRESS-INDUCED IKK/NF- KB PATHWAYS FOR CANCER THERAPY” (Max-Delbrück-Centrum für Molekulare Medizin in der …, priority 2023, dated 2024).
# Read-outs that look alike come from different tables or passages of the source.
# Columns and labels:
# Assay in all cases: Kinase panel study
# Assay type in all cases: biochemical
# [1] = target: T1, AKT2 (PKB beta) (Homo sapiens, UniProt P31751)
# T1 construct: purchased Thermo Fisher Scientific
# T1 sequence (P31751 whole entry): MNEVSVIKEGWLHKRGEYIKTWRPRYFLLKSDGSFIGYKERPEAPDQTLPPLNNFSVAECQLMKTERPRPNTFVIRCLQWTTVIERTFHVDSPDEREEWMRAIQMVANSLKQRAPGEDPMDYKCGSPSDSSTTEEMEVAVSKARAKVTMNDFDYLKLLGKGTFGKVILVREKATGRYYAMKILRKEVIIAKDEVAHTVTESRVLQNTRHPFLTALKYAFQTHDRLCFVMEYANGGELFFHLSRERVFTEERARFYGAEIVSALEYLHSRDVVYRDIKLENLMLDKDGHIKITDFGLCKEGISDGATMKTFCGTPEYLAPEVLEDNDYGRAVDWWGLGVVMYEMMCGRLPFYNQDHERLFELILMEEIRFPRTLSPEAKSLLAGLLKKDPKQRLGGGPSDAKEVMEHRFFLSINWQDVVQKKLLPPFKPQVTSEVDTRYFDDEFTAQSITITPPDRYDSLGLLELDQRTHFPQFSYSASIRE
# Method: (§1) The Kinase panel study was entirely provided by Thermo Fisher Scientific using the two lead compounds MW01 and MW05 as well as their derivatives (MW01-E06, MW01-E10, MW01-E14, MW01-E18, MW05-E2, MW05-E3, MW05-E9 and MW05-E10. The experiment was performed using the ZLyte or Adapta protocol according to manufacturer standard operating procedures.
# (§2) Based on their similar effects in our screen and molecular analysis, MW01 and MW05 were used in comparative target deconvolution studies seeking common targets despite their distinct structures. To eliminate previously identified kinases regulating NF-κB activity, such as IKK, as possible targets of MW01 and MW05, an in vitro kinase inhibition assay was performed. […] We next investigated if any of the shared kinase targets of MW01 and MW05 play a role in genotoxic stress-induced NF-κB activity and established several criteria to narrow down pathway-relevant targets. Considering the similar NF-κB inhibition phenotypes of both compounds, we hypothesized first that the target should be shared by both lead compounds. Second, based on the CaCo2 recovery values and experimental treatment concentration of 10 µM), the putative target kinase should have a low IC50 of, at most, 2000 nM for both lead compounds in the in vitro kinase panel (Fig. 2A). Based on these criteria alone, we arrived at a relatively short list of potential targets for further analysis, leaving only PIK3CG, PIK3C2G, and CLK2 (Fig. 2B). IC50 values for PIK3C2G by both lead compounds agreed best with these criteria, but RNA expression analysis indicates high tissue specificity as well as lack of expression of this kinase in our U2-OS model cell line, which we then eliminated from further analysis (Uhlén et al., 2015). […] Table 6: Percentage of inhibition of the indicated kinases by MW01 or MW05 at either 10 µM or 1 µM. n.d. = not determined.
# [2] = target: T2, BLK (Homo sapiens, UniProt P51451)
# T2 construct: purchased Thermo Fisher Scientific
# T2 sequence (P51451 whole entry): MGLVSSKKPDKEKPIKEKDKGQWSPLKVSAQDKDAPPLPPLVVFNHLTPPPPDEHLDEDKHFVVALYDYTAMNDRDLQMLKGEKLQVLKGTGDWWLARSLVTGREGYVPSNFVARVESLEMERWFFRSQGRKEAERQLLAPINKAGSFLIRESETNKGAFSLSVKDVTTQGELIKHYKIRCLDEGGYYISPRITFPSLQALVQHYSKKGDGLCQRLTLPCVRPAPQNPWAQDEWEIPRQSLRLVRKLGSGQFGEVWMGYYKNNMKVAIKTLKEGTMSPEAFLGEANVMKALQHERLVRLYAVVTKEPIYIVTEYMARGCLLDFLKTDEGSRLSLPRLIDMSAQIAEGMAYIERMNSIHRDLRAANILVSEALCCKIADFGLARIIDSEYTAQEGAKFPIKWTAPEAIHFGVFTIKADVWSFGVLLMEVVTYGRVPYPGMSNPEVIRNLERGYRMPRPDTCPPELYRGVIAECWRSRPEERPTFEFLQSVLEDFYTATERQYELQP
# Method: as §1, §2
# [3] = target: T3, IKBKB (IKK beta) (Homo sapiens, UniProt O14920)
# T3 construct: purchased Thermo Fisher Scientific
# T3 sequence (O14920 1-756): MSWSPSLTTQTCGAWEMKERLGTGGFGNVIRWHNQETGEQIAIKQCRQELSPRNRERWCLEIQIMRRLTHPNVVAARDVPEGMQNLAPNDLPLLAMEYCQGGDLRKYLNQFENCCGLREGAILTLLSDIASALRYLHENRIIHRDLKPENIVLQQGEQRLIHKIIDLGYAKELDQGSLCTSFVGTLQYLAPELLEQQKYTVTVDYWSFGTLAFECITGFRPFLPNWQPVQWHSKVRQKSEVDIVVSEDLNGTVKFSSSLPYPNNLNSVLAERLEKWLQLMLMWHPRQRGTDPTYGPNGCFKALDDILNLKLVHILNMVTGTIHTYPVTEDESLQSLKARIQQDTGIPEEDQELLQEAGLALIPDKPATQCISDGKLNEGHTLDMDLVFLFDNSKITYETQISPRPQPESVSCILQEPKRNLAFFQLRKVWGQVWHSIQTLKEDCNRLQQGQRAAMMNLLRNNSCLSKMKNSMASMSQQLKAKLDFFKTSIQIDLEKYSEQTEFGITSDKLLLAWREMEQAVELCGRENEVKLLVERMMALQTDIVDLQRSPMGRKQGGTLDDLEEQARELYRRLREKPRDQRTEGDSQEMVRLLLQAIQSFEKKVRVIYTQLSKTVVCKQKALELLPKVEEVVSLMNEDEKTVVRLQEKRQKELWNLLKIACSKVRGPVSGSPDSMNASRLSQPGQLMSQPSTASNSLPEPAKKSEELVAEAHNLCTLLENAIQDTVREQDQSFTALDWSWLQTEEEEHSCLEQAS
# Method: as §1, §2
# [4] = target: T4, MAP4K2 (GCK) (Homo sapiens, UniProt Q12851)
# T4 construct: purchased Thermo Fisher Scientific
# T4 sequence (Q12851 1-820): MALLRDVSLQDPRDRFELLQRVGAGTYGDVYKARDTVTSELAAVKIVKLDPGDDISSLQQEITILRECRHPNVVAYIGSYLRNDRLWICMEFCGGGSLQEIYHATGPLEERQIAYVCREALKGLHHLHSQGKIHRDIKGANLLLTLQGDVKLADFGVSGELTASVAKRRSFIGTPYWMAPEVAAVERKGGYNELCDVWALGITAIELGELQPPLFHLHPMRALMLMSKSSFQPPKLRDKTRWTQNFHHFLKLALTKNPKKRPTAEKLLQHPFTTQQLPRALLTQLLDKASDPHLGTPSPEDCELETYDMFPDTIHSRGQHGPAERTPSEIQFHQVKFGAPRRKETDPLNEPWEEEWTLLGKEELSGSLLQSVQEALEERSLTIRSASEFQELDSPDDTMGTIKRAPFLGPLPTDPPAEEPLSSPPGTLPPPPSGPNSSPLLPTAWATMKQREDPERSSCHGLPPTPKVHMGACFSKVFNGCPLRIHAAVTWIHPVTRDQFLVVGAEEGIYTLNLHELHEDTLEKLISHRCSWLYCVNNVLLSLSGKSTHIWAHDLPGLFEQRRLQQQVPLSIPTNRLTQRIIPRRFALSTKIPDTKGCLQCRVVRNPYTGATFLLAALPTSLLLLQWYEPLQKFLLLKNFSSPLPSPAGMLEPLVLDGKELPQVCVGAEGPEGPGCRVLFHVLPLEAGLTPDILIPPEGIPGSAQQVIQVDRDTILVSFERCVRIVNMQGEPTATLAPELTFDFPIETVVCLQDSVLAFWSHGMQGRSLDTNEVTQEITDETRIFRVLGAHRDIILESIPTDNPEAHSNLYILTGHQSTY
# Method: as §1, §2
# [5] = target: T5, MINK1 (Homo sapiens, UniProt Q8N4C8)
# T5 construct: purchased Thermo Fisher Scientific
# T5 sequence (Q8N4C8 whole entry): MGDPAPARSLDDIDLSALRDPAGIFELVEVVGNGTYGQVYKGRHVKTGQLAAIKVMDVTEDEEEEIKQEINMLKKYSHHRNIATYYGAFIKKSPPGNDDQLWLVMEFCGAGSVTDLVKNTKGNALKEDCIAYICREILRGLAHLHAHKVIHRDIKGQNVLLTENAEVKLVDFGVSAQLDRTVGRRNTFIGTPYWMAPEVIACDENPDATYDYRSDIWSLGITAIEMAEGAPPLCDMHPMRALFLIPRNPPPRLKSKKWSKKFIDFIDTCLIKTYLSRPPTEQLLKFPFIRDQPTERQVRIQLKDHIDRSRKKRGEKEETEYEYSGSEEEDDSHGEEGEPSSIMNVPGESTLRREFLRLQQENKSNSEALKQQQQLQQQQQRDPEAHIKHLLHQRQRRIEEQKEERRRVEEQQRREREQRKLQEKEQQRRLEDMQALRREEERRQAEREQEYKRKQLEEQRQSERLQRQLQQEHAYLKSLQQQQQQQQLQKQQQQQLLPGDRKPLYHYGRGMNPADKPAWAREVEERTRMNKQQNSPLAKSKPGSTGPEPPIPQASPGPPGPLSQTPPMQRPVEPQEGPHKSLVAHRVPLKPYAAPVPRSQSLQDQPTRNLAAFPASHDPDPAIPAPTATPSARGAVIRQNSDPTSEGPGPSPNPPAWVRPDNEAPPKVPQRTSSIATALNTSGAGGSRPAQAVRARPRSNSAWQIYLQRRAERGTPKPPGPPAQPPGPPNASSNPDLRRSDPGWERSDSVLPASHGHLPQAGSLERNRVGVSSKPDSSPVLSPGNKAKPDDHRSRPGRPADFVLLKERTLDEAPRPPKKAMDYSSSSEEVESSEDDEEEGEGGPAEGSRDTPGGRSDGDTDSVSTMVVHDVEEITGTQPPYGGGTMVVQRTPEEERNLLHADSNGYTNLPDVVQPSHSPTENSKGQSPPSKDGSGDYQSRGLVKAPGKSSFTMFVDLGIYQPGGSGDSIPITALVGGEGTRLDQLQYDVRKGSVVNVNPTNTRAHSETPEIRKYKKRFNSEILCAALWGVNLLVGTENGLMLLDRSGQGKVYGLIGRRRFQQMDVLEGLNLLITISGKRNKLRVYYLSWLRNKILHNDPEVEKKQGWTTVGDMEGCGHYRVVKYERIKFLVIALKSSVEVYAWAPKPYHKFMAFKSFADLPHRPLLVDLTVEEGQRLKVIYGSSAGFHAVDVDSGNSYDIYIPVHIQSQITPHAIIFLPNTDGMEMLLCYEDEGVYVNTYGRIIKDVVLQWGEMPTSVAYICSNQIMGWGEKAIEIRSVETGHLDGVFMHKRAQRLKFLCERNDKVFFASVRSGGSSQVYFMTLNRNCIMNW
# Method: as §1, §2
# [6] = target: T6, PI4K2A (PI4K2 alpha) (Homo sapiens, UniProt Q9BTU6)
# T6 construct: purchased Thermo Fisher Scientific
# T6 sequence (Q9BTU6 whole entry): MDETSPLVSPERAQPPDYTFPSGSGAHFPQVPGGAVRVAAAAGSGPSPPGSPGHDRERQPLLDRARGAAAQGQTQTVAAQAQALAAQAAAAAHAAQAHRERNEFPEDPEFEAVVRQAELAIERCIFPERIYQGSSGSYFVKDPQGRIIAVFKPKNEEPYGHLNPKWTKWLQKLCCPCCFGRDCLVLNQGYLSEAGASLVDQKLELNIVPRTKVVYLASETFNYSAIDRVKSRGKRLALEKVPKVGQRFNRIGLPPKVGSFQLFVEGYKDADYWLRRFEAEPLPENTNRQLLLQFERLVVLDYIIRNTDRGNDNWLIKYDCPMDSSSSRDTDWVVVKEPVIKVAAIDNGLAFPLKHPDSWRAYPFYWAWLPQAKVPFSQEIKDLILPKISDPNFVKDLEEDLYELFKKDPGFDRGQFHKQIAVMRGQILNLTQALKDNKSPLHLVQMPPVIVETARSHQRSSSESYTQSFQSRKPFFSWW
# Method: as §1, §2
# [7] = target: T7, PIK3C2A (PI3K-C2 alpha) (Homo sapiens, UniProt O00443)
# T7 construct: purchased Thermo Fisher Scientific
# Method: as §1, §2
# [8] = target: T8, PIK3CB/PIK3R2 (p11 0 beta/p85 beta) (Homo sapiens, UniProt P42338)
# T8 construct: purchased Thermo Fisher Scientific
# Method: as §1, §2
# [9] = target: T9, PIK3CG (p11 0 gamma) (Homo sapiens, UniProt P48736)
# T9 construct: purchased Thermo Fisher Scientific
# T9 sequence (P48736 whole entry): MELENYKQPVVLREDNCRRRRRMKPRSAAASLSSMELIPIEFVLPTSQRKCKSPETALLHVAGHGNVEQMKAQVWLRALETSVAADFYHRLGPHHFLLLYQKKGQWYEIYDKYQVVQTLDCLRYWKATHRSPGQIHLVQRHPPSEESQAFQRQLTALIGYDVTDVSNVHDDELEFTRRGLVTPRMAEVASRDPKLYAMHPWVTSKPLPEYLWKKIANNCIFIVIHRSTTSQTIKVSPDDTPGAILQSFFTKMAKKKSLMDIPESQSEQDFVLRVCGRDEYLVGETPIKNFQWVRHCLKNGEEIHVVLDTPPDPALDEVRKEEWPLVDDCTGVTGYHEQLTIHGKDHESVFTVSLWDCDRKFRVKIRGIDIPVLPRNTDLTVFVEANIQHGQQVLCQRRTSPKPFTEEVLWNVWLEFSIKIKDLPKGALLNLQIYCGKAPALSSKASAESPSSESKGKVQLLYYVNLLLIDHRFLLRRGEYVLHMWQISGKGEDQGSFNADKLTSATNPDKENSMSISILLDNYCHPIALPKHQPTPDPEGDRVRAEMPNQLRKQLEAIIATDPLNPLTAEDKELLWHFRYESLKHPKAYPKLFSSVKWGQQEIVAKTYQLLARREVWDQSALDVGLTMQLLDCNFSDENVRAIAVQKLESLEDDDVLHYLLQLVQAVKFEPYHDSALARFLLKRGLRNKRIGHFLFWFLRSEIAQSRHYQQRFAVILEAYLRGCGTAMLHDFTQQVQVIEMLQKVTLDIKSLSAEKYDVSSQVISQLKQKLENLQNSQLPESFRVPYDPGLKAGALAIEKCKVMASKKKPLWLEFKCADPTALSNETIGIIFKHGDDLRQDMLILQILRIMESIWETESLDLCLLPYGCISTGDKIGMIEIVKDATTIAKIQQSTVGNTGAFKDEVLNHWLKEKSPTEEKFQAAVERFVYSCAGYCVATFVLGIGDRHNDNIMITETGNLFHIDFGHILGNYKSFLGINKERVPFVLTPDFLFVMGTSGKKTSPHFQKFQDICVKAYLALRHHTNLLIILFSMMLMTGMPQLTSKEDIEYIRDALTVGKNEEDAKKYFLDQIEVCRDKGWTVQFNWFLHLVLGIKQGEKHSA
# Method: as §1, §2
# [10] = target: T10, PIP5K1C (Homo sapiens, UniProt O60331)
# T10 construct: purchased Thermo Fisher Scientific
# T10 sequence (O60331 whole entry): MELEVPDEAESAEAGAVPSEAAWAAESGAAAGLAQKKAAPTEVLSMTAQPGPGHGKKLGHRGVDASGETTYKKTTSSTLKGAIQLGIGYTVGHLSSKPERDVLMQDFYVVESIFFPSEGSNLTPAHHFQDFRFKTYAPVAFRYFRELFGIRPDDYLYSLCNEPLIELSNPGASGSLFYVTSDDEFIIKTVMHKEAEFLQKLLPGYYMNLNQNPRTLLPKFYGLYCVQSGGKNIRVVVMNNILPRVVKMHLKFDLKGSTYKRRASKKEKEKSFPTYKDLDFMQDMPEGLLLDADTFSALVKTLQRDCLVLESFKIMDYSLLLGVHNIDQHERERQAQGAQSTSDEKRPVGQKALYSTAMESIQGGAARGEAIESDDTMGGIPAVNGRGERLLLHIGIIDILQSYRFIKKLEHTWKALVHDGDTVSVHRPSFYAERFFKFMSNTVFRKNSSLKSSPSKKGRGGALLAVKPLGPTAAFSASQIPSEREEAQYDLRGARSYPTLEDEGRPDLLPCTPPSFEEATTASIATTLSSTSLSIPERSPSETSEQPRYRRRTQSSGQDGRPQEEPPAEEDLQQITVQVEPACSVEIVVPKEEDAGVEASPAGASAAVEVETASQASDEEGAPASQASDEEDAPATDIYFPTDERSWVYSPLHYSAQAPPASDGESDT
# Method: as §1, §2
# [11] = AKT2 (PKB beta), compound at 10µM, read-out: % of Inhibition
# [12] = BLK, compound at 10µM, read-out: % of Inhibition
# [13] = IKBKB (IKK beta), compound at 10µM, read-out: % of Inhibition
# [14] = MAP4K2 (GCK), compound at 10µM, read-out: % of Inhibition
# [15] = MINK1, compound at 10µM, read-out: % of Inhibition
# [16] = PI4K2A (PI4K2 alpha), compound at 10µM, read-out: % of Inhibition
# [17] = PIK3C2A (PI3K-C2 alpha), compound at 10µM, read-out: % of Inhibition
# [18] = PIK3CB/PIK3R2, compound at 10µM, read-out: % of Inhibition
# [19] = PIK3CG, compound at 10µM, read-out: % of Inhibition
# [20] = PIP5K1C, compound at 10µM, read-out: % of Inhibition
# [21] = 1000nM, read-out: Percentage of inhibition
# [22] = 10000nM, read-out: Percentage of inhibition
smiles,measurement,setting,value
"COc1ccc2c(c1)c1ccnc3c4ccnc(OC)c4c(=O)n2c13 [MW01-E14, 5,17-dimethoxy-1,11,16-triazapentacyclo[10.7.1.0^2,^7.0^8,^20.0^13,^18]icosa-2(7),3,5,8(20),9,11,13(18),14,16-nonaen-19-one]",inhibition at 10 µM,[1]; [11],14%
same,inhibition at 10 µM,[2]; [12],9%
same,inhibition at 10 µM,[3]; [13],16%
same,inhibition at 10 µM,[4]; [14],81%
same,inhibition at 10 µM,[5]; [15],12%
same,inhibition at 10 µM,[6]; [16],35%
same,inhibition at 10 µM,[7]; [17],23%
same,inhibition at 10 µM,[8]; [18],12%
same,inhibition at 10 µM,[9]; [19],49%
same,inhibition at 10 µM,[10]; [20],8%
"O=c1c2cnccc2c2nccc3c4cc(O)ccc4n1c32 [MW01-E18, 5-hydroxy-1,11,16-triazapentacyclo[10.7.1.0^2,^7.0^8,^20.0^13,^18]icosa-2(7),3,5,8(20),9,11,13(18),14,16-nonaen-19-one]",inhibition at 10 µM,[1]; [11],3%
same,inhibition at 10 µM,[2]; [12],23%
same,inhibition at 10 µM,[3]; [13],16%
same,inhibition at 10 µM,[4]; [14],93%
same,inhibition at 10 µM,[5]; [15],85%
same,inhibition at 10 µM,[6]; [16],30%
same,inhibition at 10 µM,[7]; [17],44%
same,inhibition at 10 µM,[8]; [18],63%
same,inhibition at 10 µM,[9]; [19],99%
same,inhibition at 10 µM,[10]; [20],27%
"COc1ccc2cc3c(N)nn(C(=O)c4cccc(N(C)C)c4)c3nc2c1 [MW05, (3-Amino-7-methoxypyrazolo[3,4-b]quinolin-1-yl)-[3-(dimethylamino)phenyl]methanone]",inhibition at 1 µM,[1]; [21],10%
same,inhibition at 10 µM,[1]; [22],-8%
same,inhibition at 1 µM,[2]; [21],0%
same,inhibition at 10 µM,[2]; [22],-1%
same,inhibition at 1 µM,[3]; [21],6%
same,inhibition at 10 µM,[3]; [22],5%
same,inhibition at 1 µM,[4]; [21],13%
same,inhibition at 10 µM,[4]; [22],10%
same,inhibition at 1 µM,[5]; [21],20%
same,inhibition at 10 µM,[5]; [22],9%
same,inhibition at 1 µM,[6]; [21],-7%
same,inhibition at 10 µM,[6]; [22],-1%
same,inhibition at 1 µM,[7]; [21],-5%
same,inhibition at 10 µM,[7]; [22],1%
same,inhibition at 1 µM,[8]; [21],15%
same,inhibition at 10 µM,[8]; [22],64%
same,inhibition at 1 µM,[9]; [21],20%
same,inhibition at 10 µM,[9]; [22],70%
same,IC50,"[9]; in vitro kinase panel, criterion of at most 2000 nM",≤ 2000 nM
same,inhibition at 1 µM,[10]; [21],-1%
same,inhibition at 10 µM,[10]; [22],26%
"COc1ccc2nc3c(cc2c1)c(N)nn3C(=O)c1cccc(N(C)C)c1 [MW05-E2, 1-[3-(dimethylamino)benzoyl]-6-methoxy-1H-pyrazolo[3,4-b]quinolin-3-amine]",inhibition at 10 µM,[1]; [11],8%
same,inhibition at 10 µM,[2]; [12],10%
same,inhibition at 10 µM,[3]; [13],12%
same,inhibition at 10 µM,[4]; [14],2%
same,inhibition at 10 µM,[5]; [15],29%
same,inhibition at 10 µM,[6]; [16],-4%
same,inhibition at 10 µM,[7]; [17],10%
same,inhibition at 10 µM,[8]; [18],7%
same,inhibition at 10 µM,[9]; [19],2%
same,inhibition at 10 µM,[10]; [20],-2%
